Like-named read-outs stand apart in the source and are kept apart here.
How the values were obtained:
[1] = tested on: fasting, metabolically healthy rats; test: Blood glucose determination after single oral application (fasting, metabolically healthy rats); assay type: in vivo, Sprague-Dawley rats; details: for A: Change of the blood glucose concentration (maximal, with reference to control animals): single oral administration 0.6 to 1.0 mmole/kg, maximal change within 24 hours; for ED50: read-out: B: ED50 (dose which effects a lowering of the blood glucose concentration by at least 15% in 50% of the animals)
Procedure: In Table I there are reproduced investigations of the influence of representatives of the compounds according to the invention on the blood glucose concentration of fasting, metabolically healthy rats after single oral administration of substance of 0.6 to 1.0 mmole/kg body weight within 24 hours. Column A states in each case the maximal lowering in % with reference to the control group within 24 hours after application of the compounds.
1. Blood Glucose Determination After Single Oral Application
Young male Sprague-Dawley rats (body weight 160-200 g) are used. The animals are kept in makralon cages with up to 5 animals per cage [room-temperature 23° C., humidity of the atmosphere 55%, fixed day/night rhythm (12/12 h), rat standard diet Altromin^R ].
Food is withdrawn from the animals 20-22 hours before the taking of the 1st blood sample. Water uptake occurs ad libitum. Blood samples are taken at intervals of 0, 2, 6 and 24 hours through puncture from the postorbital plexus.
After deproteinisation with perchloric acid, the blood glucose determination is effected by means of the enzymatic HK/G-6-POH method according to R. Richterich [Klinische Chemie, Theorie und Praxis, 3rd Edition, 1971, S. Karger Verlag, Zuerich-Basle, page 275].
For comparison, in each case a control group treated with pure solvent is also investigated.

in vivo = details: mouse
Procedure: 3. Determination of the toxicity
The toxicity investigations were carried out on female NMRI mice (body weight 22-26 g). The animals (5 animals per dose) receive, 18 hours before the treatment, the food (Altromin®) reduced to 50 g/50 animals and water ad libitum. Various doses of the substances are administered per os or intraperitoneal (volume 20 ml/kg). The duration of observation is 7 days. The DL50, i.e. the dose at which 50% of the animals die, is determined graphically from the dose effect curve.

[2] = tested on: isolatedly perfused rat liver; test: Inhibition of glucose formation (from lactate and pyruvate) on the isolatedly perfused rat liver; parameters: species or system Sprague-Dawley rats; details: for D: ID50 (inhibition of the glucose formation from lactate and pyruvate by 50%): isolatedly perfused rat liver, concentration in the perfusate
Procedure: The values in column D show the concentrations (ID50 mmol/l) of the substances in the perfusate, which bring about on the isolatedly perfused rat liver an inhibition of the glucose formation from lactat and pyruvat by 50%.
2. Inhibition of Glucose Formation on the Isolatedly Perfused Rat Liver
Young male Sprague-Dawley rats (160-200 g) are used. The animals are kept as described under 1.
Food is withdrawn from the animals 20-22 hours before the operation. Water uptake occurs ad libitum. Operation and perfusion of the liver are effected according to the technique of R. Scholz et al. [Eur. J. Biochem. 38 (1973) 64-72]. As perfusion liquids, Krebs-Henseleit biocarbonate buffer (pH 7.4) is used which is saturated with an oxygen/carbon dioxide mixture (95/5) and contains 1.6 mmoles/liter L-lactates and 0.2 mmole/liter pyruvate. The perfusion liquid is pumped into the liver via a cannula introduced into the portal vein. The perfusion liquid emerging is collected via a cannula introduced into the vena cava and then taken past an oxygen electrode. The liver is perfused for about 2 hours. The test compounds are infused from the 32nd to 80th minute of the perfusion, with increasing concentrations (0.01, 0.03, 0.10 mmol/l).
Samples of the emerged perfusion liquid are collected at one-minute intervals and analysed for glucose, lactate and pyruvate according to enzymatic standard methods. The oxygen content is continuously determined by means of a platinum electrode. The check constants (ID50) stated in Table I refer to the state which exists before and after addition of the compounds; the changes caused alone through lactate and pyruvate were set at 100%.

[3] = rat, single oral administration, with reference to control group
[4] = ip, i.p., read-out: C: LD50 (i.p.)

Structure (SMILES) | A: Change of the blood glucose concentration (maximal, with reference to control animals) ([1]; rat) | ED50 [1, 3] | LD50 at 168 h (in vivo; [4]) | LD50 at 168 h (in vivo; po, per os, read-out: C: LD50) | inhibition of the glucose formation from lactate and pyruvate in the liver (in words) [2] | D: ID50 (inhibition of the glucose formation from lactate and pyruvate by 50%) [2] | ED50 ([1]; Rattus norvegicus, po)
CN(C(=O)c1ccccc1)c1ccccc1CCCC(=O)O [Serial No. 3, 4-[2-(N-methylbenzamido)-phenyl]-butyric acid] | -27% | 205 mg/kg | – | – | – | – | –
CN(C(=O)c1ccc(Cl)cc1)c1ccccc1CCC(=O)O [Serial No. 4, 3-[2-(N-methyl-4-chlorobenzamido)-phenyl]-propionic acid] | -16% | 426 mg/kg | – | – | – | – | –
COc1cccc(N(C)C(=O)c2ccc(Cl)cc2)c1CCCC(=O)O [Serial No. 13, 4-[6-methoxy-2-(N-methyl-4-chlorobenzamido)-phenyl]-butyric acid] | -14% | > 500 mg/kg | – | – | – | – | –
CN(C(=O)c1cccc(C(F)(F)F)c1)c1ccccc1CCCC(=O)O [Serial No. 12, 4-[2-(N-methyl-3-trifluoromethylbenzamido)-phenyl]-butyric acid] | -20% | 278 mg/kg | 150 mg/kg | – | – | – | –
CN(C(=O)c1ccc(Cl)cc1)c1ccccc1CCCC(=O)O [Serial No. 9, 4-[2-(N-methyl-4-chlorobenzamido)-phenyl]-butyric acid] | -24% | 103 mg/kg | – | > 1000 mg/kg | – | – | –
CCCCNC(=N)NC(=N)N [Serial No. 1, buformin, reference compound] | -20% | – | – | – | no inhibition | ineffective | 227 mg/kg
CN(C(=O)c1ccc(Cl)c(Cl)c1)c1ccccc1CCCC(=O)O [Serial No. 10, 4-[2-(N-methyl-3,4-dichlorobenzamido)-phenyl]-butyric acid] | -17% | 198 mg/kg | 250 mg/kg | – | – | – | –
CN(C(=O)c1cccc(C(F)(F)F)c1)c1ccc(Cl)cc1CCC(=O)O [Serial No. 8, 3-[5-chloro-2-(N-methyl-3-trifluoromethylbenzamido)-phenyl]-propionic acid] | -26% | 185 mg/kg | – | > 1000 mg/kg | – | – | –
CN(C(=O)c1ccc(Cl)c(Cl)c1)c1ccccc1CCC(=O)O [Serial No. 5, 3-[2-(N-methyl-3,4-dichlorobenzamido)-phenyl]-propionic acid] | -11% | 363 mg/kg | – | 1100 mg/kg | – | – | –
CN(C(=O)c1ccccc1)c1ccccc1CCC(=O)O [Serial No. 6, 3-[2-(N-methylbenzamido)-phenyl]-propionic acid] | -26% | 221 mg/kg | – | 970 mg/kg | – | – | –
COc1ccc(N(C)C(=O)c2ccc(Cl)c(Cl)c2)c(CCCC(=O)O)c1 [Serial No. 14, 4-[5-methoxy-2-(N-methyl-3,4-dichloro-benzamido)-phenyl]-butyric acid] | -21% | – | – | – | – | – | –
CN(C(=O)c1ccc(Cl)c(Cl)c1)c1ccc(Cl)cc1CCC(=O)O [Serial No. 7, 3-[5-chloro-2-(N-methyl-3,4-dichlorobenzamido)-phenyl]-propionic acid] | -15% | – | – | > 1000 mg/kg | – | – | –
[H]/N=C(/N)N/C(=N/[H])NCCc1ccccc1 [Serial No. 2, phenformin] | -2% | – | – | – | no inhibition | ineffective | –
CN(C(=O)c1ccc(Cl)c(Cl)c1)c1ccccc1CCCCC(=O)O [Serial No. 15, 5-[2-(N-methyl-3,4-dichlorobenzamido)-phenyl]-valeric acid] | -5% | > 700 mg/kg | – | – | – | – | –
CN(C(=O)c1ccc(Cl)cc1Cl)c1ccccc1CCCC(=O)O [Serial No. 11, 4-[2-(N-methyl-2,4-dichlorobenzamido)-phenyl]-butyric acid] | -17% | 245 mg/kg | – | > 1000 mg/kg | – | – | –

— patent US4322439A, “ω-[2-(N-Lower alkyl-benzamido)-phenyl]-alkanoic acids, their use, and medicaments containing them” (BYK Gulden Lomberg Chemische Fabrik GmbH, priority 1978, dated 1982)
